Measurements reported in US9808512B2, “Anti-cell proliferative compounds and methods of use” (KALOS Therapeutics, priority 2007, dated 2017).
Several values for one entry are separate records, joined by “and”; a condition that tells them apart may be missing. Identical values can stand only once. Entries after “also recorded” stand apart in the source; their conditions may differ.

How the values were obtained:
[1] = system: Human Pancreatic Adenocarcinoma Cells (HPAC); test: HPAC cell viability, Calbiochem Rapid Cell Proliferation Kit, optical density at 450 nm; assay type: cell-based; details: 48 hours; for Optical Densities in 96_Well Plate, Average: average of 5 replicate wells; for Optical Densities in 96_Well Plate: single replicate wells
Experimental: Human Pancreatic Adenocarcinoma Cells (HPAC) cells were obtained from ATCC and propagated in Dulbecco's modified Eagle's medium and Ham's F12 medium (DME-F12) (1:1) containing 2.5 mM glutamine, […], 5 ug/mL transferrin, 1 ng/mL EGF (epidermal growth factor), plus 5% FBS (fetal bovine serum). Cell cultures were incubated at 37° C., 5% CO2 in a 100% humidity atmosphere. The cells were routinely brought to confluence in T-flasks, rinsed with phosphate buffered saline (PBS), and treated with trypsin for 5 min at room temp. The trypsinized cells were rinsed from the plate with 10 mL medium and counted. Viability at subculturing was generally ≧95%.
Approximately 10,000 cells in 100 uL of medium were placed in each well of a 96-well plate and incubated over night. Peptides having the following sequences were used: Arg-15-Cys (RSSCAGAALSPLGAC; SEQ. ID NO:122); Pro-15-Val (PNEEAGAALSPLPEV; SEQ. ID NO:121); Ala-8-Leu (AGAALSPL; SEQ. ID NO:85); C-ANP 4-23 ([…]; SEQ. ID NO:124) and, VDL ([…]; SEQ. ID NO:125). The peptides were dissolved in PBS and sterile filtered. The peptides were diluted into the cell culture medium to the following final concentrations: 1, 0.3, 0.1, 0.03, and 0.01 uM. Each peptide was tested in 5 replicate wells. The cultures were incubated for an additional 48 hours at 37° C.
The viability of the cells was determined using a Calbiochem Rapid Cell Proliferation Kit (catalog number QIA127). Ten uL of Calbiochem color reagent was added to each well and incubated for an additional 1.5 hours at 37° C. Optical densities were read at 450 nm using a Molecular Devices ThermoMax microplate reader. The plate template is shown in Table I (unlabeled wells contained cells but no peptide and were used as blanks). Results are presented in Table I, and are graphically illustrated in FIGS. 1 and 2.

[2] = system: cancer cells; details: known natriuretic peptides; cited from earlier work
[3] = target: T1, NPRC (Homo sapiens, UniProt P17342); details: cited from earlier work
T1 sequence (P17342 27-541): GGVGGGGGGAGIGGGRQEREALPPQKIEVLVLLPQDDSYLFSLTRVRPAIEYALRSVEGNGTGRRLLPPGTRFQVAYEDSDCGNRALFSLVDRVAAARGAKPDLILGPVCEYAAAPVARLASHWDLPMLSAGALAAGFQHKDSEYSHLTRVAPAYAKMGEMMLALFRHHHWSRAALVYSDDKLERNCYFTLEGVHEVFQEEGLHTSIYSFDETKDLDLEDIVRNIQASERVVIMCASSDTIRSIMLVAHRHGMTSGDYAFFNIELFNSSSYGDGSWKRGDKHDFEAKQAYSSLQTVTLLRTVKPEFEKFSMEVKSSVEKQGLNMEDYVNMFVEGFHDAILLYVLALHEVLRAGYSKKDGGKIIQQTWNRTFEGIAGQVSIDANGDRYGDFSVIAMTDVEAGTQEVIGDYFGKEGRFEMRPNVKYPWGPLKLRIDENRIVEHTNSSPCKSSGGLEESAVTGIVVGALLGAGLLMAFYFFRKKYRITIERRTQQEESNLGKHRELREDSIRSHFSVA

[4] = target: T2, NPRA (Homo sapiens, UniProt P16066); details: cited from earlier work
T2 sequence (P16066 33-1061): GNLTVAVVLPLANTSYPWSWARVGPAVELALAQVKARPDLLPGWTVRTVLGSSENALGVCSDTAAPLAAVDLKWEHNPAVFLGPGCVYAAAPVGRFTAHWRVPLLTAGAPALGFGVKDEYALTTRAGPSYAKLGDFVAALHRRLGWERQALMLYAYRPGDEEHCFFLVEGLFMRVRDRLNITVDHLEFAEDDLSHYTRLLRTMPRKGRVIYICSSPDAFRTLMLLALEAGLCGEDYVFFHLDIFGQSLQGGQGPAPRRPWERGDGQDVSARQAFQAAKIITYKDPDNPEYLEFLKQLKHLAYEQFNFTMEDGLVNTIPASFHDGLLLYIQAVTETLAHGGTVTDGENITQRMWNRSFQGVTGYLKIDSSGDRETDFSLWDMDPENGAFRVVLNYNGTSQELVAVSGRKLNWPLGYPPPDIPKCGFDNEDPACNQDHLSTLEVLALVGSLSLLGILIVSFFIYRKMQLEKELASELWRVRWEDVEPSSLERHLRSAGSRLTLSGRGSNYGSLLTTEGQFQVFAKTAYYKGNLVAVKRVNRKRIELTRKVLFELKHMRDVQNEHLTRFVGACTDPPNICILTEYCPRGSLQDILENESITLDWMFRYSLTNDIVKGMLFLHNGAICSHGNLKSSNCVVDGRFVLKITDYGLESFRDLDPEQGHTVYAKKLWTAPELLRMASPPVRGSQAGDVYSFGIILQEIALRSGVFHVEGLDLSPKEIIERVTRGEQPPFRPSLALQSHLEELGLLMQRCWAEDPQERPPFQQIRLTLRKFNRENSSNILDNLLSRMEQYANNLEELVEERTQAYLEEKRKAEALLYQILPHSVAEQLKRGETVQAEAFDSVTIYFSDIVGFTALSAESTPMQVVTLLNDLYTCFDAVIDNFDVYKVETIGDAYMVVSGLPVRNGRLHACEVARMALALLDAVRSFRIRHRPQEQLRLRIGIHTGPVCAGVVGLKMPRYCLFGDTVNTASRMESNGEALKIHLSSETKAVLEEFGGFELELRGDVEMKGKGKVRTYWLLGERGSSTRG

Substance	Optical Densities in 96_Well Plate, Average ([1]; peptide 0.01 μM)	Optical Densities in 96_Well Plate ([1]; peptide 0.01 μM)	Optical Densities in 96_Well Plate, Average ([1]; peptide 0.03 μM)	Optical Densities in 96_Well Plate ([1]; peptide 0.03 μM)	Optical Densities in 96_Well Plate, Average ([1]; peptide 0.1 μM)	Optical Densities in 96_Well Plate ([1]; peptide 0.1 μM)	Optical Densities in 96_Well Plate, Average ([1]; peptide 0.3 μM)	Optical Densities in 96_Well Plate ([1]; peptide 0.3 μM)	Optical Densities in 96_Well Plate, Average ([1]; peptide 1.0 μM)	Optical Densities in 96_Well Plate ([1]; peptide 1.0 μM)	anticancer activity / relative potency [2]	binding affinity at NPRC [3]	binding affinity at NPRA [4]
AGAALSPL [Ala-8-Leu, ID NO:85]	0.937	0.744 and 0.878 and 1.000 and 0.892 and 1.169	0.976	0.892 and 0.937 and 0.989 and 0.921 and 1.139	0.991	0.832 and 1.006 and 1.031 and 0.910 and 1.174	1.002	0.784 and 0.802 and 0.998 and 1.357 and 1.070	0.985	0.732 and 1.216 and 0.954 and 0.834 and 1.189	–	–	–
ANP: Natriuretic peptide; Table III sequence SLRRSSCFGGRMDRIGAQSGLGCNSFRY, SEQ ID NO:126 [reference compound]	0.908	0.981 and 0.815 and 0.822 and 0.965 and 0.955	0.935	0.948 and 0.882 and 0.911 and 0.951 and 0.982	0.838	0.884 and 0.889 and 0.907 and 0.862 and 0.650	0.974	1.001 and 0.889 and 0.837 and 0.934 and 1.209	0.914	1.018 and 0.819 and 0.954 and 0.829 and 0.951	greater potency observed for ANP than CNP; also recorded: have anticancer activity	higher binding affinities	higher binding affinities
EVVPPQVLSEPNEEAGAALSPLPEVPPWTGEVSPAQR [KT-220 (VDL), ID NO:125]	–	–	–	–	–	–	–	–	–	–	have anticancer activity	–	–
PNEEAGAALSPLPEV [Pro-15-Val, ID NO:121]	0.916	0.907 and 0.905 and 0.633 and 1.209 and 0.928	0.894	0.892 and 0.765 and 0.693 and 1.151 and 0.970	0.918	0.680 and 0.895 and 0.893 and 1.156 and 0.964	0.916	0.875 and 0.817 and 0.855 and 1.024 and 1.010	0.948	0.856 and 0.752 and 0.802 and 1.083 and 1.248	–	–	–
RSSCAGAALSPLGAC [Arg-15-Cys, ID NO:122]	0.934	0.974 and 0.920 and 0.863 and 0.840 and 1.075	0.982	1.093 and 0.894 and 0.789 and 0.955 and 1.178	0.950	1.016 and 0.917 and 0.801 and 0.990 and 1.025	0.897	0.988 and 0.957 and 0.668 and 0.913 and 0.959	0.962	1.155 and 1.005 and 0.787 and 0.944 and 0.919	–	–	–
RSSCFGGRIDRIGAC [C-ANP 4-23, ID NO:124, reference compound]	0.938	0.877 and 0.971 and 0.953 and 0.932 and 0.958	0.932	0.905 and 0.882 and 0.981 and 0.948 and 0.943	0.942	0.758 and 1.027 and 0.983 and 0.960 and 0.982	0.942	0.840 and 0.928 and 1.035 and 0.975 and 0.932	0.925	0.865 and 0.925 and 0.900 and 0.955 and 0.981	have anticancer activity	–	–
